According to article PMC12657321, “Pre-clinical evaluation of a potent and effective Pin1-degrading agent in pancreatic cancer” (Molecular Therapy Oncology, 2025):
Non-standard residues stand in square brackets, D forms with d. Residues, ends and D or L forms follow the SMILES beside them. *: point of attachment. Trp(6-Cl) = N[C@@H](Cc1c[nH]c2cc(Cl)ccc12)C(=O)O; Pip = O=C(O)[C@@H]1CCCCN1; ClAc = O=C(CCl)*

How the values were obtained:
[1] = tested on: MIA PaCa-2 cells; format: cell-based, human; conditions: 72 h
Method: (§1) The effect of Pin1 degradation by 164B8 on cell viability was assessed using live-cell analysis (IncuCyte S3). […] Furthermore, to evaluate the acute single-dose toxicity of 164B8 in vivo, CD-1 immune-competent mice were exposed to increasing doses of 164B8. […] Therefore, a maximum tolerated dose was not reached (Figure S12).
Figure S11: Mia PaCa-2 and KPC cells were treated with different doses of 164B8, and the
IncuCyte S3 live-cell analysis system was used to monitor the agent’s activity every 3 hours for
(§2) (1 picture or pasted object on this page, not shown here)

[2] = tested on: NSG mice; assay: Toxicity after repeated doses in NSG mice (CBC, observation); format: in vivo, mouse
Method: Figure 6 Toxicity of 164B8 after repeated doses in NSG mice Blood from mice treated as described in Figure 5 was collected and evaluated at the end of the experiment. Peripheral blood from mice was collected and analyzed by standard complete blood count (CBC). (A) Body weight, (B) white blood cell (WBC) counts (×10^9 cells/L), (C) hemoglobin (HGB) concentration (g/dL), and (D) platelet counts (×10^9 cells/L, log scale) in peripheral blood were determined. Data are presented as individual values with mean ± SD. Dotted horizontal lines indicate physiological reference ranges. Statistical comparisons were performed using one-way AVOVA; p values are shown in each panel.
Bioluminescent imaging (BLI) was performed one week post-inoculation. Based on imaging intensity, mice were re-grouped to ensure six animals per group. The PIN1 inhibitor was administered via intraperitoneal injection at doses of 30 mg/kg or 60 mg/kg, once daily, 5 days per week for 2 weeks. Tumor engraftment and growth were monitored by in vivo BLI. D-luciferin potassium salt was dissolved in sterile PBS to a final concentration of 16.6 mg/mL and mice were injected intraperitoneally with D-luciferin solution (0.139 g luciferin/kg body weight), then imaged 10–15 min after luciferin injection using an IVIS Spectrum Imaging System (Lago X) with identical exposure times and binning settings for all mice. Bioluminescence signal intensity was quantified as total flux (photons/s) within a region of interest (ROI) using Aura image software. BLI was performed once every week during the treatment. After 2 weeks of treatment, mice were euthanized 6 h after the final dose. Blood samples were collected via cardiac puncture, and normal peritoneum, intestine, and liver tissues were harvested and snap-frozen on dry ice.

[3] = tested on: CD-1 mice; format: in vivo, mouse
Method: as §1
Figure S12: A) Acute toxicity study at 100mg/kg. In this preliminary safety study, 3 CD -1 mice were treated with a single dose of 100 mg/kg of 164B8. The injections were administered intraperitoneally (ip), and the body weight of the mice was measured for several days after the injection. B) Body weight control during the in -vivo efficacy study. The body weights of the mice in the three groups were measured on the day of treatment (day 0) and 7 and 14 days after.
as §2

[4] = Human plasma stability; format: in vitro ADME; conditions: 37°C, up to 6 h, acetonitrile quench, LC-MS/MS
Method: (§3) A solution of a Pin1 inhibitor was spiked into blank plasma at 1 μg/mL in various solutions, including an aqueous buffer (1× phosphate-buffered saline; Fisher Scientific, Fair Lawn, NJ), human plasma (Innovative Research Inc., Novi, MI), wild-type mouse plasma (Innovative Research Inc., Novi, MI), plasma form esterase-deficient mice (City of Hope, Duarte, CA), and plasma from Black 6-Cg mice (City of Hope, Duarte, CA).
(§4) The spiked plasma samples were incubated at 37°C for up to 6 h. At each designated time point, a 20 μL aliquot of the incubation sample was removed and quenched in 100 μL of acetonitrile. At the end of the incubation, the quenched samples were vortexed and centrifuged for 10 min at 4°C and 20,000 × g. The resulting supernatant was reconstituted and analyzed by LC-MS/MS.
(§5) Table S2. Stability half-life of agents reported in Table 1 after incubation at 37 °C in various media. Acq represents aqueous buffer composed of 1x phosphate buffered saline (Fisher Scientific, Fair Lawn, NJ); human represents human plasma (Innovative Research Inc., Novi, MI); mouse wt represents wild type mouse plasma (Innovative Research Inc., Novi, MI); mouse ES1e represents plasma form esterase deficient mice (City of Hope, Duarte, CA); mouse B6-Cg represents plasma from black 6-Cg mice (City of Hope, Duarte, CA). See Figure 1 for the chemical structures of these compounds.
(§6) Compound Acq Human Mouse Mouse ES1e Mouse

[5] = Wild-type mouse plasma stability; format: in vitro ADME; conditions: 37°C, up to 6 h, acetonitrile quench, LC-MS/MS, value given in h, read-out: Stability half-life, Mouse WT (converted)
Method: as §3, §4, §5, §6

[6] = target: T1, human Pin1 (Homo sapiens, UniProt Q13526); assay: Covalent complex formation with Pin1 by mass spectrometry; format: binding; conditions: ligand 20 μM, 2:1 ligand-to-protein ratio, 10 min incubation
T1 construct: Residues 1–163 of human Pin1 were expressed with a thrombin cleavage site and a HisTag at the N-terminus; 6xHis (N); thrombin cleavage site (N); made in house; host or cells: E. coli

[7] = 30 mg/kg i.p. for 2 weeks, blood at end of experiment

T1 sequence (Q13526 whole entry, the tested form may be a part): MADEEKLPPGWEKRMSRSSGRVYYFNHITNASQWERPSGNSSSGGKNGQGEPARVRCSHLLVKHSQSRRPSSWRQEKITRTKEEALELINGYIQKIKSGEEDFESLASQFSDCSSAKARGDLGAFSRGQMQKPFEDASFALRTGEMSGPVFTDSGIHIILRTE

## CNC(=O)[C@H](Cc1c[nH]c2ccccc12)NC(=O)[C@@H]1CCCCN1C(=O)[C@H](Cc1c[nH]c2cc(Cl)ccc12)NC(=O)CCl [164B8] (ClAc-[Trp(6-Cl)]-[Pip]-Trp-NHMe)
[1]
  EC50: 8.4 µM
[2]; 30 mg/kg i.p. for 2 weeks
  Tolerability of repeated dosing: generally well tolerated
[2]; [7]
  Anemia (hemoglobin, CBC): mild anemia
  Thrombocytopenia (platelet counts, CBC): moderate thrombocytopenia
[2]; 60 mg/kg i.p. for 2 weeks, final time point, no obvious carcinomatosis
  Mice euthanized because of ascites development: two of six mice
[3]; 100 mg/kg single dose intraperitoneally (highest soluble dose), monitored over 2 weeks, 3 mice
  Acute single-dose toxicity: did not produce any observable signs of acute toxicity
[3]; single intraperitoneal dose up to 100 mg/kg
  Maximum tolerated dose: not reached
[4]
  half-life at 1 μg/mL: ~4.5 h
[5]
  half-life at 1 μg/mL: ~4.5 h
[6]
  % Complex (MS): ∼100%
